Earlier results on two molecules are cited in US20110076334A1, “METHODS AND COMPOSITIONS FOR TREATMENT OF RAYNAUD'S PHENOMENON” (priority 2009, published 2011).

Like-named read-outs stand apart in the source and are kept apart here.

For data set [1] the following is noted: in vivo.
For data set [2] the following is noted: clevidipine.
The conditions of data set [3]: ultra-short acting calcium channel blocker; marketed injectable emulsion.

“(±)-2-(benzyl-methyl amino) ethyl methyl 1,4-dihydro-2,6-dimethyl-4-(m-nitrophenyl)-3,5-pyridinedicarboxylate monohydrochloride [nicardipine]”: in data set [1], the “half-life (second phase)” value was “about 44.8 minutes”, the initial phase half-life result is given as “approximately 2.7 minutes” and the terminal half-life result is “approximately 14.4 hours”.

For `CCCC(=O)OCOC(=O)C1=C(C)NC(C)=C(C(=O)OC)[C@H]1c1cccc(Cl)c1Cl` (stereo in doubt) [Clevidipine, butyroxymethyl methyl 4-(2′,3′-dichlorophenyl)-2,6-dimethyl-1,4-dihydropyridine-3,5-dicarboxylate], in data set [2], the initial phase half-life result is “approximately 1 minute” and the terminal half-life entry is given as “approximately 15 minutes”. For the same molecule, in data set [3], the onset of action is 1 to 2 min.
